# Tests used:
# Type in all cases: in vivo
# Puccinia recondita [1] = test: Field test, Puccinia recondita on wheat; conditions: 50 days after application
# Protocol: (§1) The trials are carried out under greenhouse (Examples 1 to 32) or field conditions (Examples 33 to 40) in residual or curative applications. The fungicides are applied in single treatments, or in a combination comprising an azolopyrimidine of formula I and a compound selected from the classes (A), (B) and (C) as defined above. The compounds are applied in form of an aqueous spray mix obtained from a concentrated formulation or the technical material.
# (§2) For the field study formulated Azolopyrimidine A, B or C and formulated compounds from the classes (A), (B) and (C) were used.
# (§3) Assessments of the diseases took place at the indicated day after the application of the compounds. Per cent infected leaf area infected was evaluated. The efficacy of the compounds/compounds mixtures to control the diseases was calculated by using the formula given above under item 4: […]
# (§4) Synergy was calculated using the % disease control values of specific treatments for the two COLBY formula given hereinabove
# (§5) The compounds are applied according to good agricultural practice in the form of an aqueous spray mix obtained from a concentrated formulation or the technical material at a rate of 400 l/ha. The disease control is evaluated according to the formula given for the greenhouse tests.
# (§6) Fungicidal efficacy of the mixture of Azolopyrimidine A and different cereal fungicides in the field against Puccinia recondita on wheat 50 days after application The tank mix was obtained from an SC formulation containing 100 g Azolopyrimidine A per liter and commercially available formulations of metconazole, epoxiconazole, propiconazole or kresoxim methyl, respectively.
# Blumeria graminis [2] = test: Field test, Blumeria graminis on wheat; conditions: 15 days after application
# Protocol: as §1, §2, §3, §4, §5
# (§7) Fungicidal efficacy of the mixture of (S)-Azolopyrimidine C+cyproconazole in the field against Blumeria graminis on wheat 17 days after application The tank mix was obtained from a SC formulation containing 100 g (S)-Azolopyrimidine C per liter and an EC formulation containing 60 g cyproconazole per liter.
# as §7, with “C+azoxystrobin” for “C+cyproconazole”, “a SC” for “an EC”, “250” for “60”, “azoxystrobin” for “cyproconazole”, “kg.” for “liter.”
# as §6, with “Blumeria graminis” for “Puccinia recondita”, “15” for “50”, “epoxiconazole” for “epoxiconazole, propiconazole”
# Septoria tritici = test: Field test, Septoria tritici on wheat
# Protocol: as §1, §2, §3, §4, §5
# Fungicidal efficacy of the mixture of Azolopyrimidine C+metconazole in the field against Septoria tritici on wheat The tank mix was obtained from an EC formulation containing 150 g Azolopyrimidine C per liter and a SL formulation containing 60 g metconazole per liter. The observed and expected efficacies with different rates are given in Table XXXIVa (19 days after application) and Table XXXIVb (25 days after application):
# Fungicidal efficacy of the mixture of (S)-Azolopyrimidine C+kresoxim methyl in the field against Septoria tritici on wheat The tank mix was obtained from a SC formulation containing 100 g (S)-Azolopyrimidine C per liter and a WG formulation containing 500 g kresoxim methyl per kg. The observed and expected efficacies with different rates are given in Tables XXXVa (7 days after application), XXXVb (22 days after application), XXXVc (34 days after application), and XXXVd (41 days after application):
# as §6, with “fungicides” for “fungicides in”, “Septoria tritici” for “Puccinia recondita”, “15” for “50”, “epoxiconazole” for “epoxiconazole, propiconazole”, “propiconazole,” for “kresoxim methyl,”
# Leptosphaeria nodorum = test: Greenhouse, Leptosphaeria nodorum on wheat, 3 day residual
# Protocol: as §1
# (§8) 1. Seed is planted in 6 cm diameter plastic pots and maintained in the greenhouse.
# (§9) 2. When the primary leaf is fully expanded in the case of cereals or several leaves are present in the case of dicots, formulated test compounds are sprayed with a three nozzle overhead fungicide sprayer to near run-off. Alternatively, a single nozzle overhead track sprayer is used for application of the compounds to cereals at a rate of 200 l/ha. Plants are then allowed to air-dry.
# (§10) 3. Inoculation precedes treatment in the case of curative evaluations and follows treatment in case of residual evaluations. For inoculation of powdery mildew disease, plants are set up on greenhouse benches with bottom watering mats and inoculated by dusting them with conidia from infected plants. Between inoculation and treatment for curative evaluations and between treatment and inoculation for residual evaluations, plants are maintained in the greenhouse with bottom watering.
# (§11) For inoculation of non-powdery mildew diseases, an aqueous spore suspension of the pathogen is applied to the plant and the plants are kept 1-2 days in a moist infection chamber before being returned to the greenhouse where they are maintained by bottom watering.
# (§12) 4. Disease on the foliage as percent leaf area with disease symptoms/signs is evaluated about 7 days after inoculation. In the case of wheat, the tips and bases of the leaves are excluded from the evaluation. [formula]
# (§13) 1. Technical compounds are formulated in a solvent/surfactant system consisting of 5% acetone and 0.05% Tween 20 in deionized water. Compounds are dissolved in acetone prior to addition of the water; the Tween 20 can be added through either the acetone or the water. Dilutions are made using the solvent/surfactant system. Formulated compounds are prepared using deionized water.
# (§14) 2. Two kinds of controls are included: Plants treated with the solvent/surfactant solution and inoculated (Solvent Blank). Untreated plants which are inoculated (Inoculated Control).
# as §3, §4
# Fungicidal efficacy of the mixture of Azolopyrimidine A+fenpropimorph (3 day residual) against Leptosphaeria nodorum on wheat The tank mix was obtained from technical material of Azolopyrimidine A and an EC formulation containing 750 g fenpropimorph per liter.
# Fungicidal efficacy of the mixture of Azolopyrimidine A+tebuconazole (3 day residual) against Leptosphaeria nodorum on wheat The tank mix was obtained from technical material of Azolopyrimidine A and an EC formulation containing 250 g tebuconazole per liter.
# Blumeria graminis [3] = test: Greenhouse, Blumeria graminis on wheat, 2 day residual; conditions: Example 3
# Protocol: as §1, §8, §9, §10, §12
# 1. […]
# as §3
# Synergy was calculated using the % disease control values of specific treatments for the two COLBY formula given hereinabove […]
# Botrytis cinerea = test: Apple fruit Botrytis test, Botrytis cinerea on apple fruits, 3 day residual
# Protocol: 1. Apples (Malus X domestica Borkh.) variety Golden Delicious are disinfected by washing them briefly in 70% ethanol. After drying the apples are marked with four short equal-distant lines indicating the positions to be wounded.
# 2. Corresponding with the marks, four holes are poked around the apple equator with a pipette tip. 10 μl of the treatment solution are pipetted into each hole.
# 3. Three hours after application, 10 μl of a conidial suspension of Botrytis cinerea are pipetted into each. For incubation, the treated/inoculated apples are set up for five days.
# 4. Disease occurs as rotten apple tissue surrounding the inoculated wounds. The diameter of the rotten zone around each wound is measured.
# 1. Technical compounds are formulated in a solvent system consisting of 5% acetone and 0.05% Tween 20 in deionized water. Compounds are dissolved in acetone prior to dilution with water. Formulated compounds are prepared using deionized water.
# 2. Three kinds of controls are included:
# Assessments of the diseases took place at the indicated day after the application of the compounds. Per cent infected leaf area infected was evaluated. The efficacy of the compounds/compounds mixtures to control the diseases was calculated by using the formula: [formula]
# as §4
# Fungicidal efficacy of the mixture of Azolopyrimidine A+vinclozolin (3 day residual) against Botrytis cinerea on apple fruits The tank mix was obtained from technical material of Azolopyrimidine A and a WG formulation containing 500 g vinclozolin per kg.
# Fungicidal efficacy of the mixture of Azolopyrimidine A+cyprodinil (3 day residual) against Botrytis cinerea on apple fruits The tank mix was obtained from technical material of Azolopyrimidine A and a WG formulation containing 750 g cyprodinil per kg.
# Fungicidal efficacy of the mixture of Azolopyrimidine A+benomyl (3 day residual) against Botrytis cinerea on apple fruits The tank mix was obtained from technical material of Azolopyrimidine A and a WP formulation containing 500 g benomyl per kg.
# Puccinia recondita [4] = test: Greenhouse, Puccinia recondita on wheat, 1 day curative, plants sprayed twice, once with each compound; conditions: Example 12
# Protocol: as §1, §8, §9, §10, §11, §12, §13, §14, §3, §4
# Fungicidal efficacy of the mixture of Azolopyrimidine C+kresoxim methyl (1 day curative) against Puccinia recondita on wheat Plants sprayed twice, once with each compound. The tank mixes were obtained from a SC formulation containing 100 g Azolopyrimidine C per liter and a WG containing 500 g kresoxim methyl per kg.
# [5] = Azolopyrimidine A 125 g/ha alone
smiles,measurement,setting,value
Fc1ccc([C@]2(Cn3cncn3)O[C@H]2c2ccccc2Cl)cc1 (racemic) [epoxiconazole],Observed Efficacy,Puccinia recondita [1]; epoxiconazole 63 g/ha alone,95
same,Observed Efficacy,Blumeria graminis [2]; epoxiconazole 63 g/ha alone,40
same,Observed Efficacy,"Septoria tritici; epoxiconazole 63 g/ha alone, 15 days after application, field, wheat",93
"CC1CCN(c2c(-c3c(F)cccc3Cl)c(Cl)nc3ncnn23)CC1 [Azolopyrimidine A, 5-chloro-6-(2-chloro-6-fluorophenyl)-7-(4-methylpiperid-1-yl)-[1,2,4]triazolo[1,5-a]pyrimidine]",Observed Efficacy,"Leptosphaeria nodorum; Example 1, dose rate 10 ppm",35%
same,Observed Efficacy,"Leptosphaeria nodorum; Example 1, dose rate 100 ppm",40%
same,Observed Efficacy,"Leptosphaeria nodorum; Example 2, dose rate 100 ppm",40%
same,Observed Efficacy,Blumeria graminis [3]; dose rate 10 ppm,14%
same,Observed Efficacy,Puccinia recondita [1]; [5],0
same,Observed Efficacy,Blumeria graminis [2]; [5],22
same,Observed Efficacy,"Botrytis cinerea; Example 4, dose rate 1 ppm",0%
same,Observed Efficacy,"Botrytis cinerea; Example 4, dose rate 10 ppm",33%
same,Observed Efficacy,"Botrytis cinerea; Example 5, dose rate 1 ppm",0%
same,Observed Efficacy,"Botrytis cinerea; Example 5, dose rate 10 ppm",33%
same,Observed Efficacy,"Botrytis cinerea; Example 6, dose rate 1 ppm",0%
same,Observed Efficacy,"Botrytis cinerea; Example 6, dose rate 10 ppm",0%
same,Observed Efficacy,"Botrytis cinerea; Example 7, dose rate 1 ppm",0%
same,Observed Efficacy,"Botrytis cinerea; Example 7, dose rate 10 ppm",25%
same,Observed Efficacy,"Septoria tritici; Azolopyrimidine A 125 g/ha alone, 15 days after application, field, wheat",63
CO/N=C(/C(=O)OC)c1ccccc1COc1ccccc1C [kresoxim methyl],Observed Efficacy,Puccinia recondita [1]; kresoxim methyl 100 g/ha alone,0
same,Observed Efficacy,Puccinia recondita [4]; dose rate 25 g/ha,0%
same,Observed Efficacy,Puccinia recondita [4]; dose rate 50 g/ha,1%
same,Observed Efficacy,Puccinia recondita [4]; dose rate 100 g/ha,0%
same,Observed Efficacy,Puccinia recondita [4]; dose rate 200 g/ha,1%
same,Observed Efficacy,Puccinia recondita [4]; dose rate 400 g/ha,5%
same,Observed Efficacy,Blumeria graminis [2]; kresoxim methyl 100 g/ha alone,85
same,Observed Efficacy,"Septoria tritici; Example 35, 7 days after application, dose rate 100 g/ha",40%
same,Observed Efficacy,"Septoria tritici; Example 35, 22 days after application, dose rate 100 g/ha",64%
same,Observed Efficacy,"Septoria tritici; Example 35, 34 days after application, dose rate 50 g/ha",44%
same,Observed Efficacy,"Septoria tritici; Example 35, 34 days after application, dose rate 100 g/ha",59%
same,Observed Efficacy,"Septoria tritici; kresoxim methyl 100 g/ha alone, 41 days after application, field, wheat",92
CCCC1COC(Cn2cncn2)(c2ccc(Cl)cc2Cl)O1 (stereo not drawn) [propiconazole],Observed Efficacy,Puccinia recondita [1]; propiconazole 63 g/ha alone,49
same,Observed Efficacy,"Septoria tritici; propiconazole 63 g/ha alone, 15 days after application, field, wheat",72
CC(C)(C)C(O)(CCc1ccc(Cl)cc1)Cn1cncn1 (stereo not drawn) [tebuconazole],Observed Efficacy,"Leptosphaeria nodorum; Example 2, dose rate 0.02 ppm",25%
same,Observed Efficacy,"Leptosphaeria nodorum; Example 2, dose rate 0.2 ppm",19%
same,Observed Efficacy,Blumeria graminis [3]; dose rate 0.02 ppm,2%
same,Observed Efficacy,Blumeria graminis [3]; dose rate 0.2 ppm,9%
